Literature values as cited in article PMC2765482 (Journal of medicinal chemistry, 2009).
Marks after values point to notes of the source that are not given here.

Experiments:
[1] = tested on: vancomycin-sensitive bacteria and vancomycin-resistant Enterococci (VRE); settings: against vancomycin-sensitive bacteria and VRE; ref [9]
[2] = tested on: Enterococcus faecalis strain BM4166 (vancomycin-resistant, VanA); settings: ref [18b]
[3] = tested on: Staphylococcus aureus strain ATCC 25923 (vancomycin-sensitive); settings: vancomycin-sensitive strain ATCC 25923; ref [18b] (text: ref [4],[18])
[4] = tested on: N,N′-Ac2-L-Lys-D-Ala-D-Lac (3); settings: for Association Constants 3 (Ka): ligand N,N′-Ac2-L-Lys-D-Ala-D-Lac, ref [4]
[5] = tested on: Enterocococci bacterial strains, VanA and VanB; settings: VanA and VanB resistant versus sensitive; ref [1d,k]
[6] = tested on: N,N′-Ac2-L-Lys-D-Ala-D-Ala (2); settings: ligand N,N′-Ac2-L-Lys-D-Ala-D-Ala; ref [4]
[7] = versus vancomycin; ref [11]

Substance	more active than vancomycin [1]	MIC E. faecalis [2]	MIC S. aureus [3]	reduction of affinity for the ligand on D-Ala to D-Lac modification (NH→O) ([4]; D-Ala-D-Lac versus D-Ala-D-Ala ligand, ref [1d,k])	Association Constants 3 (Ka) [4]	drop in antimicrobial activity [5]	Association Constants 2 (Ka) [6]	enhancement of antimicrobial properties [7]
Chlorobiphenyl vancomycin	ca. 100 fold							
Vancomycin [Compound 1]		2000 ^e µg/mL	1.25 ^e µg/mL	1000 fold	1.8 ^f ×10^2 M^−1	1000 fold	2.0 ^f ×10^5 M^−1	
vancomycin aglycon [Compound 5]		640 ^e µg/mL	0.625 ^e µg/mL		1.2 ^f ×10^2 M^−1		1.7 ^f ×10^5 M^−1	
N-demethylvancomycin								2 fold
